ChEMBL document CHEMBL1201862, “PubChem BioAssay data set” (2004)
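Briefly, cells in 96-well plates were exposed to five compound concentrations for 48 h, and endpoints were estimated by linear interpolation. Abbreviation: GI50, concentration required for 50% inhibition of growth.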 Calls of active or inactive are those of the source. Cut-off read from the data, not from the text of the source: active = GI50 up to about 1.1 µM and inactive = higher.

Key:
Test in all cases: NCI tumour cell line growth inhibition, 48 h
MOLT-4 = test system: MOLT-4
CAKI-1 = test system: CAKI-1
HL-60 = test system: HL-60
UACC-62 = test system: UACC-62
SNB-19 = test system: SNB-19
HOP-62 = test system: HOP-62
RPMI-8226 = test system: RPMI-8226
NCI-H23 = test system: NCI-H23
OVCAR-8 = test system: OVCAR-8
KM12 = test system: KM12
NCI-H226 = test system: NCI-H226
PC-3 = test system: PC-3
BT-549 = test system: BT-549
SF-268 = test system: SF-268
A549 = test system: A549
MCF7 = test system: MCF7
DU-145 = test system: DU-145
COLO 205 = test system: COLO 205
UACC-257 = test system: UACC-257
SW-620 = test system: SW-620

| SMILES | GI50 (MOLT-4) | GI50 (CAKI-1) | GI50 (HL-60) | GI50 (UACC-62) | GI50 (SNB-19) | GI50 (HOP-62) | GI50 (RPMI-8226) | GI50 (NCI-H23) | GI50 (OVCAR-8) | GI50 (KM12) | GI50 (NCI-H226) | GI50 (PC-3) | GI50 (BT-549) | GI50 (SF-268) | GI50 (A549) | GI50 (MCF7) | GI50 (DU-145) | GI50 (COLO 205) | GI50 (UACC-257) | GI50 (SW-620) |
| --- | --- | --- | --- | --- | --- | --- | --- | --- | --- | --- | --- | --- | --- | --- | --- | --- | --- | --- | --- | --- |
| CC(C)C(O)(C(C)C)C(C)C | > 100 µM (inactive) | > 100 µM (inactive) | > 100 µM (inactive) | > 100 µM (inactive) | > 100 µM (inactive) | > 100 µM (inactive) | > 100 µM (inactive) | > 100 µM (inactive) | > 100 µM (inactive) | > 100 µM (inactive) | > 100 µM (inactive) | > 100 µM (inactive) | > 100 µM (inactive) | > 100 µM (inactive) | > 100 µM (inactive) | > 100 µM (inactive) | > 100 µM (inactive) | > 100 µM (inactive) | > 100 µM (inactive) | – |
| CC(=O)OCC1=CC2OC(=O)C3=COC(OC4OC(CO)C(O)C(O)C4O)C1C32 (stereo not given) | – | > 100 µM (inactive) | > 100 µM (inactive) | > 100 µM (inactive) | > 100 µM (inactive) | > 100 µM (inactive) | > 100 µM (inactive) | > 100 µM (inactive) | > 100 µM (inactive) | > 100 µM (inactive) | > 100 µM (inactive) | > 100 µM (inactive) | > 100 µM (inactive) | > 100 µM (inactive) | > 100 µM (inactive) | > 100 µM (inactive) | > 100 µM (inactive) | > 100 µM (inactive) | > 100 µM (inactive) | > 100 µM (inactive) |
| CCOC(=O)c1cc2ncccc2c2ccccc12 | > 100 µM (inactive) | > 100 µM (inactive) | > 100 µM (inactive) | > 100 µM (inactive) | > 100 µM (inactive) | > 100 µM (inactive) | > 100 µM (inactive) | > 100 µM (inactive) | > 100 µM (inactive) | > 100 µM (inactive) | > 100 µM (inactive) | > 100 µM (inactive) | > 100 µM (inactive) | > 100 µM (inactive) | > 100 µM (inactive) | > 100 µM (inactive) | > 100 µM (inactive) | > 100 µM (inactive) | > 100 µM (inactive) | – |
| CCCCCCCCCCCCCCCCOC[C@H](COC(c1ccccc1)(c1ccccc1)c1ccccc1)O[PH](=S)OC (stereo not given in full) | > 100 µM (inactive) | > 100 µM (inactive) | > 100 µM (inactive) | > 100 µM (inactive) | > 100 µM (inactive) | – | > 100 µM (inactive) | > 100 µM (inactive) | > 100 µM (inactive) | > 100 µM (inactive) | > 100 µM (inactive) | > 100 µM (inactive) | > 100 µM (inactive) | > 100 µM (inactive) | > 100 µM (inactive) | > 100 µM (inactive) | > 100 µM (inactive) | > 100 µM (inactive) | > 100 µM (inactive) | > 100 µM (inactive) |
| CCOC(=O)c1c(OCC)[nH]c(=O)c(C(c2cccs2)c2c(O)c(C(=O)OCC)c(OCC)[nH]c2=O)c1O | 6.47 µM (inactive) | 18 µM (inactive) | 13.7 µM (inactive) | 14.2 µM (inactive) | 11.4 µM (inactive) | 10.4 µM (inactive) | 12.1 µM (inactive) | 21.4 µM (inactive) | 12.6 µM (inactive) | 17.9 µM (inactive) | 3.9 µM (inactive) | 18.2 µM (inactive) | 5 µM (inactive) | 10.2 µM (inactive) | 14.5 µM (inactive) | 14.9 µM (inactive) | 13.9 µM (inactive) | 17.3 µM (inactive) | 11.7 µM (inactive) | 12.1 µM (inactive) |
| Clc1ccc(OCc2nnc(COc3ccc(OCc4nnc(COc5ccc(Cl)cc5Cl)o4)c(Cl)c3)o2)c(Cl)c1 | – | 24.8 µM (inactive) | 23.1 µM (inactive) | 40.5 µM (inactive) | 68.4 µM (inactive) | 51.6 µM (inactive) | 17.3 µM (inactive) | 48.1 µM (inactive) | 41.4 µM (inactive) | 45.7 µM (inactive) | 36.2 µM (inactive) | 29.9 µM (inactive) | 69.2 µM (inactive) | 23.5 µM (inactive) | 32 µM (inactive) | 32.1 µM (inactive) | 71.3 µM (inactive) | 24.4 µM (inactive) | > 100 µM (inactive) | 70.1 µM (inactive) |
| Cc1ccc(S(=O)(=O)NNC(=O)c2cc(C)c(C)cc2N)cc1 | 66.2 µM (inactive) | > 100 µM (inactive) | > 100 µM (inactive) | > 100 µM (inactive) | > 100 µM (inactive) | > 100 µM (inactive) | > 100 µM (inactive) | > 100 µM (inactive) | 60.4 µM (inactive) | > 100 µM (inactive) | > 100 µM (inactive) | > 100 µM (inactive) | > 100 µM (inactive) | – | – | > 100 µM (inactive) | > 100 µM (inactive) | > 100 µM (inactive) | > 100 µM (inactive) | > 100 µM (inactive) |
| Cc1cc(S(=O)(=O)Nc2nc3ccccc3n2-c2ccccc2)c(S)cc1Cl | > 100 µM (inactive) | > 100 µM (inactive) | > 100 µM (inactive) | > 100 µM (inactive) | 82.2 µM (inactive) | – | > 100 µM (inactive) | – | > 100 µM (inactive) | > 100 µM (inactive) | > 100 µM (inactive) | > 100 µM (inactive) | > 100 µM (inactive) | > 100 µM (inactive) | > 100 µM (inactive) | > 100 µM (inactive) | > 100 µM (inactive) | > 100 µM (inactive) | > 100 µM (inactive) | > 100 µM (inactive) |
| CC(=O)O[C@H]1CC[C@H]2[C@@H]3CCC4=C(C(=O)C=CC4(C)OC(C)=O)[C@H]3CC[C@]12C (stereo not given in full) | 33.9 µM (inactive) | > 100 µM (inactive) | 27.3 µM (inactive) | 23.1 µM (inactive) | > 100 µM (inactive) | > 100 µM (inactive) | 38.3 µM (inactive) | 35.8 µM (inactive) | 39.5 µM (inactive) | 29.1 µM (inactive) | > 100 µM (inactive) | 48 µM (inactive) | 26.2 µM (inactive) | 83.4 µM (inactive) | 90.2 µM (inactive) | 26.4 µM (inactive) | > 100 µM (inactive) | – | > 100 µM (inactive) | 35.8 µM (inactive) |
| O=[N+]([O-])c1cccc2nc3ccccc3c(NCCN(CCO)CCO)c12 | – | 0.0064 µM (active) | 0.0104 µM (active) | 0.00396 µM (active) | 0.00783 µM (active) | 0.00282 µM (active) | 0.00246 µM (active) | 0.00222 µM (active) | 0.00351 µM (active) | 0.00498 µM (active) | 0.00102 µM (active) | 0.00213 µM (active) | 0.00308 µM (active) | 0.00423 µM (active) | 0.00272 µM (active) | 0.00206 µM (active) | 0.00208 µM (active) | 0.000904 µM (active) | – | 0.000774 µM (active) |
| C=C=C(CC(CC(=C)Br)(C(=O)OC)C(=O)OC)S(=O)(=O)c1ccccc1 | 1.91 µM (inactive) | 1.41 µM (inactive) | 0.494 µM (active) | 1.61 µM (inactive) | 12.2 µM (inactive) | 5.21 µM (inactive) | 1.85 µM (inactive) | 2.05 µM (inactive) | 1.29 µM (inactive) | 2.29 µM (inactive) | 6.12 µM (inactive) | 1.73 µM (inactive) | 1.4 µM (inactive) | 2.37 µM (inactive) | 2.78 µM (inactive) | 1.87 µM (inactive) | 1.6 µM (inactive) | 1.84 µM (inactive) | 2.03 µM (inactive) | 1.58 µM (inactive) |
| CC1(C)OC(=O)C(=Cc2ccc([N+](=O)[O-])s2)C(=O)O1 | 8.22 µM (inactive) | 15.6 µM (inactive) | 2.49 µM (inactive) | – | 16.5 µM (inactive) | 18.2 µM (inactive) | 8.32 µM (inactive) | 18.1 µM (inactive) | 11.4 µM (inactive) | 14.7 µM (inactive) | 23.5 µM (inactive) | 19.2 µM (inactive) | 13.4 µM (inactive) | 14.7 µM (inactive) | 90.8 µM (inactive) | 12.7 µM (inactive) | 15.8 µM (inactive) | 16.6 µM (inactive) | 18.6 µM (inactive) | 1.94 µM (inactive) |
| CN(C)CCCNC(=O)c1c(O)c2ccccc2[nH]c1=O | > 100 µM (inactive) | 47.2 µM (inactive) | > 100 µM (inactive) | > 100 µM (inactive) | – | > 100 µM (inactive) | > 100 µM (inactive) | > 100 µM (inactive) | > 100 µM (inactive) | > 100 µM (inactive) | > 100 µM (inactive) | > 100 µM (inactive) | > 100 µM (inactive) | 83.2 µM (inactive) | > 100 µM (inactive) | > 100 µM (inactive) | > 100 µM (inactive) | 41.1 µM (inactive) | > 100 µM (inactive) | > 100 µM (inactive) |
| Cc1ccc(C(=O)Nc2ccc(CP(=O)(O)O)cc2)cc1NC(=O)Nc1cc(C(=O)Nc2ccc(CP(=O)(O)O)cc2)ccc1C | > 100 µM (inactive) | > 100 µM (inactive) | > 100 µM (inactive) | > 100 µM (inactive) | – | > 100 µM (inactive) | > 100 µM (inactive) | > 100 µM (inactive) | > 100 µM (inactive) | > 100 µM (inactive) | > 100 µM (inactive) | > 100 µM (inactive) | > 100 µM (inactive) | > 100 µM (inactive) | > 100 µM (inactive) | > 100 µM (inactive) | > 100 µM (inactive) | > 100 µM (inactive) | > 100 µM (inactive) | > 100 µM (inactive) |
